Tested on: CcaF
Experiment: In vitro CcaF leader peptide removal assay
Type: biochemical, Chryseobacterium carnipullorum DSM25581
Settings: substrate:CcaF 100:1 to 20:1; 50 mM Tris-HCl pH 8.0, RT overnight; MALDI-TOF MS
From the text: To identify the position of each modification and characterize the final product, the leader peptide must be excised. To this end, we focused on the putative peptidase CcaF. The sequence of CcaF is annotated as a S8 (subtilisin type) serine protease and contains a classical Asp-His-Ser catalytic triad. Recombinant CcaF was heterologously expressed in E. coli BL21(DE3) and purified as a polyHis-tagged protein (Supplementary Fig. 7). […] Given the structural divergence amongst these modified peptides, CcaF appears to be a protease with a broad substrate scope.
The leader peptide was removed by protease CcaF. The reactions were performed in a 1.5 mL eppendorf tube with optimized ratio (100:1 to 20:1) of different substrates and CcaF in 50 mM Tris-HCl (pH =8.0) buffer at RT overnight. The substrates are different modified full length precursor peptide and synthetic 10-mer peptide. The reaction was monitored by MALDI-TOF MS, if the digestion was not completed, another 50:1 ratio CcaF protease was added and stay at RT for another 8 hours.

## DELSATAAAA [10-mer peptide]
  cleavage by protease CcaF: digested at the expected position

— PMC10676384, “Core-dependent post-translational modifications guide the biosynthesis of a new class of hypermodified peptides” (Nature Communications, 2023)
